Tests used:
RAW 264.7 cells = test: Cytotoxicity by 3H-thymidine incorporation in murine RAW 264.7 cells
Description: (§1) The final aldehyde concentrations in the test were 0.01-34 μmol/mL.
(§2) The cytotoxicity of dextran derivatives was evaluated in murine RAW 264.7 cells, an internationally recognized cell line for examination of drug effects.
(§3) Growth inhibition was estimated by the ^3H-thymidine incorporation method. Cells were cultured in flat-bottom flasks at 37° C. Before each experiment the cells were washed and removed by trypsin treatment or scraped from the flask bottom, and an appropriate volume was centrifuged, resuspended, and diluted in growth medium to the desired cell concentration. […] By use of an automated dispenser, 200 μL of cell suspension was added to each well of a microtiter plate. After incubation overnight, the appropriate drug concentration, in triplicate, was added to test wells. Drug-free medium was used as control. ^3H-Thymidine (0.5 μCi) in 20 μL of medium was added the next day, and the plate was harvested and read by liquid scintillation counter (LKB, Finland) after an additional 24 h. The percent growth inhibition of the cells by the drug tested was calculated as [100−(count with drug/control count)×100].
(§4) Dextran with 50% oxidation was used as a positive toxicity control.
(§5) Drug effect and the IC50 were defined as previously described.

[1] = tested on: Leishmania donovani IS promastigotes; test: In vitro activity against Leishmania donovani promastigotes (3H-thymidine incorporation); type: cell-based
Description: The in vitro antiparasitic activity was evaluated against Leishmania donovani IS promastigotes. This strain, isolated from a patient in Sudan, was received from the International Reference Center of the Kuvin Center for Infectious Diseases in the Hebrew University of Jerusalem.
Serial dilutions of the tested agents were prepared in RPMI 1640 growth medium. The final AmB concentration in the test ranged from 0.2 to 6 μg/mL. Wells containing drug-free medium served as control. […] Briefly, 96-well plates were seeded with 60,000 promastigotes/well in 200 μL of medium, and test solutions were added 3 h later. After 24 h of incubation, 0.5 μCi/well ^3H-thymidine (in 10% FCS medium) was added, and the cultures were harvested after an additional 24 h. During the experiment the cells were incubated at 25° C. in air. The drug effect and the IC50 of the conjugates were estimated as described before (Example 7).

Sheep erythrocytes = test: Hemolysis evaluated visually after 1 h incubation at 37° C.; type: cell-based; conditions: visual
[2] = tested on: RAW 264.7 cells (growth, thymidine incorporation); test: Cytotoxicity by 3H-thymidine incorporation in murine RAW 264.7 cells; conditions: mouse, RAW 264.7 cells
Description: as §1, §2, §3, §4, §5

[3] = In vitro release of conjugated drug into solution/buffer; type: physicochemical; conditions: after 12 hours in buffer at pH7.4 at 37° C.
Description: About 10% of the conjugated drug was released after 12 hours in a buffer at pH7.4 at 37° C.

[4] = tested on: Staphylococcus Aureus and E. Coli; test: Antimicrobial activity, filter paper disc on seeded agar plate; type: cell-based; conditions: 24 hours at 37° C.; 6 mm filter paper; equivalent amounts of drug
Description: The antimicrobial activity of these conjugates was determined as follows: Saline solutions of equivalent amounts of the drug in free form or the imine AG conjugate were absorbed onto a circular filter paper (6 mm in diameter) and placed on a seeded agar plate with Staphylococcus Aureus (10^5/ml) and E. Coli incubated for 24 hours at 37° C.

What does the source list for `C[C@@H]1[C@H](O)[C@@H](C)/C=C/C=C/C=C/C=C/C=C/C=C/C=C/[C@H](O[C@@H]2O[C@H](C)[C@@H](O)[C@H](N)[C@@H]2O)C[C@@H]2O[C@](O)(C[C@@H](O)C[C@@H](O)[C@H](O)CC[C@@H](O)C[C@@H](O)CC(=O)O[C@H]1C)C[C@H](O)[C@H]2C(=O)O` [Free AmB, Amphotericin B]?
toxicity to cells (RAW 264.7 cells; AmB and dextran-AmB conjugates, equivalent AmB amounts): extremely toxic; Toxicity IC50 (RAW 264.7 cells; murine RAW 264.7 cell line, 3H-thymidine incorporation): 9 μgAmB/ml; toxicity/activity to parasites ([1]; AmB and dextran-AmB conjugates): extremely toxic; Antiparasitic activity IC50 ([1]; Leishmania donovani, 3H-thymidine incorporation): 0.05 μgAmB/ml; Hemolysis (Sheep erythrocytes): 16 μgAmB/ml

For `O=CCCCC=O` [Glutaraldehyde], which IC50 at 48 h [2] is on record?
Its IC50 at 48 h is under 0.15 µg/mL.

Which “IC50 (in vitro cytotoxicity of modified dextran)” value (RAW 264.7 cells) does the source give for Native Dextran here?
Its value is over 5000 µg/mL.

Which conjugated drug released [3] does the source give for “Somatostatin-Arabinogalactan Ethanolamine Conjugate: somatostatin conjugated to 32% oxidized AG, reacted with excess ethanolamine” here?
The conjugated drug released was “About 10%”.

With gentamicin as the compound, how does the inhibition zone [4] read?
Its inhibition zone is over 20 mm.

Reference: US20100159012A1, “Conjugates of Therapeutically Active Compounds” (priority 2005, published 2010)
